Measurements reported in article PMC10700596 (Nature Communications, 2023).
“And” between values parts separate entries of the source, which are not always exact repeats. Equal entries are not always repeated. “Also recorded” adds a separate entry of the source. Where two headings read alike, the source gives them in different places.

Experiments:
mice = assay type: in vivo; conditions: for Carrageenan-induced allodynia, mechanical threshold (von Frey): individual animals
[1] = cited from earlier work
ALK = ALK (Homo sapiens, UniProt Q9UM73); experiment: biochemical; assay type: binding; conditions: 10000 nM; read-out: Percent Control
wild-type EP4R = wild-type EP4R (Homo sapiens, UniProt P35408); experiment: cell-based
EP2R = EP2R (Homo sapiens, UniProt P43116); experiment: Radioligand (3H-PGE2) displacement assay at EP2R; assay type: binding
320 GPCRs [2] = target: 320 GPCRs (Homo sapiens, UniProt P13945); assay type: cell-based
320 GPCRs (Homo sapiens, UniProt P13945), sequence (P13945 whole entry): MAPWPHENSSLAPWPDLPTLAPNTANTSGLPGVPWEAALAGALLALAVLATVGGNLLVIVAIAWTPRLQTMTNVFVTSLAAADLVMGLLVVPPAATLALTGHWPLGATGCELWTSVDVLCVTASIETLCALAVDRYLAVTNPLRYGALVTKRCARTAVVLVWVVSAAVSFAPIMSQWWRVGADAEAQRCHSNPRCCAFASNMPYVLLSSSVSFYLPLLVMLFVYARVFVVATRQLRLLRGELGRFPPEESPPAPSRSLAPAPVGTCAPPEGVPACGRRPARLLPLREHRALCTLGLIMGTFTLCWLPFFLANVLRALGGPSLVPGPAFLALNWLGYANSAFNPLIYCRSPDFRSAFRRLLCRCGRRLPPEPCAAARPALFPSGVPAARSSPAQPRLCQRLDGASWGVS

320 GPCRs [3] = target: 320 GPCRs (Homo sapiens, UniProt P22888); assay type: cell-based
320 GPCRs [4] = target: 320 GPCRs (Homo sapiens, UniProt P14416); assay type: cell-based
320 GPCRs [5] = target: 320 GPCRs (Homo sapiens, UniProt P21731); assay type: cell-based
320 GPCRs [6] = target: 320 GPCRs (Homo sapiens, UniProt Q9NQS5); assay type: cell-based
320 GPCRs [7] = target: 320 GPCRs (Homo sapiens, UniProt P48039); assay type: cell-based
320 GPCRs [8] = target: 320 GPCRs (Homo sapiens, UniProt P49238); assay type: cell-based
320 GPCRs [9] = target: 320 GPCRs (Homo sapiens, UniProt Q8NFN8); assay type: cell-based
320 GPCRs (Homo sapiens, UniProt Q8NFN8), sequence (Q8NFN8 whole entry): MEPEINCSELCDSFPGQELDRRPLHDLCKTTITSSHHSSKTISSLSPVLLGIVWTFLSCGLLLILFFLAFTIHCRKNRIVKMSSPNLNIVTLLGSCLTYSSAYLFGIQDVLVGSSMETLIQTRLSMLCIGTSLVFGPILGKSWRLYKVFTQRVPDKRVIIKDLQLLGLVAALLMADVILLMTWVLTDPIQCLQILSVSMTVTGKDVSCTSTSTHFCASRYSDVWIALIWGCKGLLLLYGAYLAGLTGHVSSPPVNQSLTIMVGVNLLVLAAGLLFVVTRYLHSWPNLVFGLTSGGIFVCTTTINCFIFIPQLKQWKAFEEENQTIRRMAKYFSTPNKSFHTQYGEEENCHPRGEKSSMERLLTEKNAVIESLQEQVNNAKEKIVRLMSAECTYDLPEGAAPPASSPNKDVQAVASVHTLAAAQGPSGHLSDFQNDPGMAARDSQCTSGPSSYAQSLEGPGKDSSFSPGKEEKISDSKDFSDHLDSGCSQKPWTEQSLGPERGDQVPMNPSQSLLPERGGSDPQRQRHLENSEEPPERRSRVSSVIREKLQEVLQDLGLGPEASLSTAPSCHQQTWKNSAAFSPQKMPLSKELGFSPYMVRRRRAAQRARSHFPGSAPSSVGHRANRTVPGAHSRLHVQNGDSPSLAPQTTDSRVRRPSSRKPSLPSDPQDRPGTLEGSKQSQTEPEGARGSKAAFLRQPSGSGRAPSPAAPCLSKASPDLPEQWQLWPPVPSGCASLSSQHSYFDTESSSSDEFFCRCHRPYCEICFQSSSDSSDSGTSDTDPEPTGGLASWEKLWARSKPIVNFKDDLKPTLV

320 GPCRs [10] = target: 320 GPCRs (Homo sapiens, UniProt P35348); assay type: cell-based
320 GPCRs (Homo sapiens, UniProt P35348), sequence (P35348 whole entry): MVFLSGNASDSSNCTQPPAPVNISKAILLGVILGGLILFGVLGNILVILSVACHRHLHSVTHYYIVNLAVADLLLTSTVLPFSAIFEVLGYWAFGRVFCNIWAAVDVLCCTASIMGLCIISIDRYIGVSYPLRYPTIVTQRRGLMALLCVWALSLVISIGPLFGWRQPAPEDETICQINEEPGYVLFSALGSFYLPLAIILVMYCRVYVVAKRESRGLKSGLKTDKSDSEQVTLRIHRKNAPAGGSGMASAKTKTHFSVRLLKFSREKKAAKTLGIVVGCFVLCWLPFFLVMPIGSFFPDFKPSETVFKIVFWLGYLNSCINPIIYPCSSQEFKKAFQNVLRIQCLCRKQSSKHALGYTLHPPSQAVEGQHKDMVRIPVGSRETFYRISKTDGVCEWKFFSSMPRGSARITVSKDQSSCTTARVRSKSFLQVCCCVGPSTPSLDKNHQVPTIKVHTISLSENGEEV

320 GPCRs [11] = target: 320 GPCRs (Homo sapiens, UniProt Q99678); assay type: cell-based
320 GPCRs [12] = target: 320 GPCRs (Homo sapiens, UniProt Q9H1C0); assay type: cell-based
320 GPCRs (Homo sapiens, UniProt Q9H1C0), sequence (Q9H1C0 whole entry): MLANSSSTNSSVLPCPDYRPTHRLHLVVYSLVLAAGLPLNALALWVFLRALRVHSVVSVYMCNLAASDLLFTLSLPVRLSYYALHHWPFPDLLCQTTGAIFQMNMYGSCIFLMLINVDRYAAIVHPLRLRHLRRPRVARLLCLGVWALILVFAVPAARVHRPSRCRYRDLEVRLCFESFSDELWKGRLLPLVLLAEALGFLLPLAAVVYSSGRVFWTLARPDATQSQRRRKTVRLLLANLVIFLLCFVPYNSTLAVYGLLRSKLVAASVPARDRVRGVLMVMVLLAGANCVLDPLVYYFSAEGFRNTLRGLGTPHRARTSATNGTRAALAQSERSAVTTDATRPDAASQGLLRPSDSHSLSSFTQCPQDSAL

320 GPCRs [13] = target: 320 GPCRs (Homo sapiens, UniProt Q9BZJ7); assay type: cell-based
320 GPCRs [14] = target: 320 GPCRs (Homo sapiens, UniProt O00155); assay type: cell-based
320 GPCRs (Homo sapiens, UniProt O00155), sequence (O00155 whole entry): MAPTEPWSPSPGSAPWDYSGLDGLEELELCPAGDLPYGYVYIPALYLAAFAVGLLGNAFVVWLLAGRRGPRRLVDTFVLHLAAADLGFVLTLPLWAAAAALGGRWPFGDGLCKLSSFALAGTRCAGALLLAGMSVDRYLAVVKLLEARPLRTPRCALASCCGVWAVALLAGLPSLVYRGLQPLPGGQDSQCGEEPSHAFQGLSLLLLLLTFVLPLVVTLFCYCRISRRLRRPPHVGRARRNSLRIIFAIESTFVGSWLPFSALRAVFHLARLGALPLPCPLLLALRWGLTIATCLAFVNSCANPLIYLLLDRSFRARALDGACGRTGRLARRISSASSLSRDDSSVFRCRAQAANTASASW

320 GPCRs [15] = target: 320 GPCRs (Homo sapiens, UniProt Q9NPC1); assay type: cell-based
320 GPCRs [16] = target: 320 GPCRs (Homo sapiens, UniProt O15303); assay type: cell-based
320 GPCRs (Homo sapiens, UniProt O15303), sequence (O15303 25-877): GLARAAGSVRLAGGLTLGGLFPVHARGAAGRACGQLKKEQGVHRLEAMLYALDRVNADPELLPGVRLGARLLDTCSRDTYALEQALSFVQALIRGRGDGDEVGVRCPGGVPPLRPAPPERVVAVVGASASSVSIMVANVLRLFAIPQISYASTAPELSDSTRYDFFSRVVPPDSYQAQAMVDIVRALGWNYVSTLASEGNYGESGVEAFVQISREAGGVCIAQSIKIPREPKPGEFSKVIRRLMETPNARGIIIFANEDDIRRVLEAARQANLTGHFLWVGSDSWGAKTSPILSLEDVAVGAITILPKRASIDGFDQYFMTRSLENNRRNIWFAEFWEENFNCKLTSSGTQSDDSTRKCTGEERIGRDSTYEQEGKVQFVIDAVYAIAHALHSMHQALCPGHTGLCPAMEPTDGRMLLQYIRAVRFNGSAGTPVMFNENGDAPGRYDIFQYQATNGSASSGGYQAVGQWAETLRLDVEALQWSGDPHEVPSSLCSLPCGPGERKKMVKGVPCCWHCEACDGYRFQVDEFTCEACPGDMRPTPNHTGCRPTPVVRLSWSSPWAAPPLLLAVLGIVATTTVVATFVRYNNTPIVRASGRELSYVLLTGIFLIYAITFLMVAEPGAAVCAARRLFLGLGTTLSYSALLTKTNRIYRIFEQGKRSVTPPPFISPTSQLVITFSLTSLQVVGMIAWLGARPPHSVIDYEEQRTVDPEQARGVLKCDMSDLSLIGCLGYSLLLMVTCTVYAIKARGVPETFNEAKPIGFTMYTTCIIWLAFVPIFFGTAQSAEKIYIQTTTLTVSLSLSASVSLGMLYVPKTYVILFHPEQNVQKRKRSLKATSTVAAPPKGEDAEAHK

320 GPCRs [17] = target: 320 GPCRs (Homo sapiens, UniProt P32248); assay type: cell-based
320 GPCRs [18] = target: 320 GPCRs (Homo sapiens, UniProt Q9UJ42); assay type: cell-based
320 GPCRs (Homo sapiens, UniProt Q9UJ42), sequence (Q9UJ42 whole entry): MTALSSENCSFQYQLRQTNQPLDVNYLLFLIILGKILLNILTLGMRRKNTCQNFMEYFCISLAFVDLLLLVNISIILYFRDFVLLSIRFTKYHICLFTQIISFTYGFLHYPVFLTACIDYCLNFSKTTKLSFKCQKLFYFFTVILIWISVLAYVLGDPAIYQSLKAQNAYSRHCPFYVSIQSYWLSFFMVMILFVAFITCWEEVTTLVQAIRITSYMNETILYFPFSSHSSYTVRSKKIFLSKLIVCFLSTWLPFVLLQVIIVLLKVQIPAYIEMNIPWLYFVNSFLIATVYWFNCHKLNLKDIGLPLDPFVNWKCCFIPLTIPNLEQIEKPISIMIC

320 GPCRs [19] = target: 320 GPCRs (Homo sapiens, UniProt Q8TDV0); assay type: cell-based
320 GPCRs (Homo sapiens, UniProt Q8TDV0), sequence (Q8TDV0 whole entry): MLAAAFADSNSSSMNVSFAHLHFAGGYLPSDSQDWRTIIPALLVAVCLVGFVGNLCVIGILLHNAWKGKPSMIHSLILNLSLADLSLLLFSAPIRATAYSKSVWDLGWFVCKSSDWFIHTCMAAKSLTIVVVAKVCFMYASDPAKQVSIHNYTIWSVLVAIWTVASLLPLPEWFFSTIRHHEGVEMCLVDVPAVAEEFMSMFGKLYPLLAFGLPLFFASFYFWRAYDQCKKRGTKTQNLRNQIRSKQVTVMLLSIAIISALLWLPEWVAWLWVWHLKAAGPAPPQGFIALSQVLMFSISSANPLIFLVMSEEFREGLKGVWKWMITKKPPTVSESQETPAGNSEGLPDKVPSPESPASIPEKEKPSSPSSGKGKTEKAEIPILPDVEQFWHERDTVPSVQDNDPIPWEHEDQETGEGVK

320 GPCRs [20] = target: 320 GPCRs (Homo sapiens, UniProt O15218); assay type: cell-based
320 GPCRs [21] = target: 320 GPCRs (Homo sapiens, UniProt Q9NS66); assay type: cell-based
320 GPCRs (Homo sapiens, UniProt Q9NS66), sequence (Q9NS66 whole entry): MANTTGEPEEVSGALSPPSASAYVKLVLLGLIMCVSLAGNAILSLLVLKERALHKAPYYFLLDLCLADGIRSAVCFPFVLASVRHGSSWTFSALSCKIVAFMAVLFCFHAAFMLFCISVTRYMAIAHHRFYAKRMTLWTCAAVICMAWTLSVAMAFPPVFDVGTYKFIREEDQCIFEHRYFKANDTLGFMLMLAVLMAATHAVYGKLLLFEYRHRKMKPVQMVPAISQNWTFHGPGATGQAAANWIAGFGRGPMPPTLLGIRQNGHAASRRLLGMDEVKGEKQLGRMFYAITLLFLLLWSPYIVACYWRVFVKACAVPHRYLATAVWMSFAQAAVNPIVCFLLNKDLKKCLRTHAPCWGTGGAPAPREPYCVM

CDK9 = CDK9 (Homo sapiens, UniProt P50750); experiment: biochemical; assay type: binding; conditions: 10000 nM; read-out: Percent Control
[22] = target: T1, RSK2(Kin.Dom.1-N-terminal) (Homo sapiens, UniProt P51812); experiment: KINOMEscan; assay type: binding
T1 construct: RSK2(Kin.Dom.1-N-terminal); purchased Eurofins DiscoverX KINOMEscan (scanEDGE, 97 kinases)
T1 sequence (P51812 1-397 limits assumed): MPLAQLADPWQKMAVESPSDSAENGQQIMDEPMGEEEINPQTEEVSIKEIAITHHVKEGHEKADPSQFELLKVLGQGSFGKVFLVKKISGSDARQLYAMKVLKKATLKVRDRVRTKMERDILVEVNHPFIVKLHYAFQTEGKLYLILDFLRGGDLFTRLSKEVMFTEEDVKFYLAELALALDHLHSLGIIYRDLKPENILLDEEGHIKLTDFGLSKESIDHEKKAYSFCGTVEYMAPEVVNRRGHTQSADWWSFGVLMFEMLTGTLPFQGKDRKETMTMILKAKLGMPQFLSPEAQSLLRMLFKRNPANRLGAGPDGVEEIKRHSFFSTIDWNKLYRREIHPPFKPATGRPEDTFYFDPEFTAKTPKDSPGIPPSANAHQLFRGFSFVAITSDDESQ

CSF1R = CSF1R (Homo sapiens, UniProt P07333); experiment: biochemical; assay type: binding; conditions: 10000 nM; read-out: Percent Control
GPR160 = GPR160 (Homo sapiens, UniProt Q9UJ42); assay type: cell-based
GPR160, sequence (Q9UJ42 whole entry): as the sequence (Q9UJ42 whole entry) above
Experimental: (§1) EP4R. e) EP4R functional cyclic AMP production assay. Dose-response curves were obtained for 74 (KB […]
(§2) production assays for the prostaglandin D2 (PGD2) receptor or the Thromboxane A2 (TP) receptor, respectively. AZD1981 and Ramatroban were used as control PGD2 and TP receptor antagonists, respectively. U46619 served as a TP receptor agonist. H) GPCRome off-target screening of 74 at 10 µM. i) Potential off-targets that met the activity threshold (3-fold of increase of basal) in the GPCRome screen (GPR174, GPR160, or NMUR2) were investigated with full dose-response curves in PRESTO-Tango […]
(§3) Data in a)-d), f)-g), i) represents mean ± SEM of three independent experiments. Data in e) represents two technical replicates. Data in h) represents mean ± SEM of four technical replicates. Source data are provided as a Source Data file.
(§4) (1 picture or pasted object on this page, not shown here)

GPR174 = GPR174 (Homo sapiens, UniProt Q9BXC1); assay type: cell-based
Experimental: as §1, §2, §3, §4

NMUR2 = NMUR2 (Homo sapiens, UniProt Q9GZQ4); assay type: cell-based
Experimental: as §1, §2, §3, §4

[23] = target: ABL1(T315I)-phosphorylated (Homo sapiens, UniProt P00519, T315I); experiment: biochemical; assay type: binding; conditions: 10000 nM; read-out: Percent Control
CDK3 = CDK3 (Homo sapiens, UniProt Q00526); experiment: biochemical; assay type: binding; conditions: 10000 nM; read-out: Percent Control

O=C([O-])C1CCC2(CC1)CC(Nc1ncnc3[nH]c4c(F)cccc4c13)C2.[Na+] (stereo not drawn) [Compound 77, [Na+].[O-]C(=O)C1CCC2(CC(C2)NC=3N=CN=C4NC=5C(F)=CC=CC5C34)CC1]
Carrageenan-induced allodynia, mechanical threshold (von Frey) (mice; 10 mg/kg IP): 27 and 58.1 and 18.1 and 18.3 and 32 and 31.3 and 24.3 and 20.9 and 32.5 and 40
effect on carrageenan-mediated mechanical allodynia (mice; 10 mg/kg i.p.): equal anti-allodynic effects; also recorded: equally reduce carrageenan-mediated mechanical allodynia
Carrageenan-induced allodynia, mechanical threshold (von Frey) (mice; 30 mg/kg IP): 30.3 and 39.4 and 44.8 and 39.1 and 40.4
Carrageenan-induced allodynia, mechanical threshold (von Frey) (mice; 30 mg/kg PO): 45.8 and 24.2 and 57.3 and 32.3 and 42.9 and 24.5 and 10.4 and 51.4 and 11.4 and 35.4
effect on carrageenan-mediated mechanical allodynia (mice; 30 mg/kg i.p. or p.o.): significant anti-allodynic properties

CCc1nc2c(C)nc(C)cc2n1-c1ccc(CCNC(=O)NS(=O)(=O)c2ccc(C)cc2)cc1 [Grapiprant, reference compound]
reported oral bioavailability [1]: 5%

O=C(O)C1CCC2(CC1)CC(Nc1ncnc3[nH]c4c(F)cccc4c13)C2 (stereo not drawn) [Compound 74, OC(=O)C1CCC2(CC(C2)NC=3N=CN=C4NC=5C(F)=CC=CC5C34)CC1]
remaining activity at 10 µM (ALK): 14%
IC50 (wild-type EP4R): 78.9 nM
mode of antagonism by Schild analysis (wild-type EP4R): competitive antagonism
Ki (wild-type EP4R; calculated using the Cheng Prusoff equation, read-out: Arrestin-BRET Ki*): 15.6 nM
binding to EP2 receptor (EP2R): no binding
RLU (Fold over Basal) (320 GPCRs [2]): 1.4 Fold over Basal and 1.2 Fold over Basal and 1.1 Fold over Basal and 1.3 Fold over Basal
RLU (Fold over Basal) (320 GPCRs [3]): 1.7 Fold over Basal and 1.8 Fold over Basal and 1.4 Fold over Basal
RLU (Fold over Basal) (320 GPCRs [4]): 0.6 Fold over Basal and 0.5 Fold over Basal
RLU (Fold over Basal) (320 GPCRs [5]): 1.2 Fold over Basal and 1.1 Fold over Basal and 0.7 Fold over Basal
RLU (Fold over Basal) (320 GPCRs [6]): 1 Fold over Basal and 0.8 Fold over Basal and 1.1 Fold over Basal
RLU (Fold over Basal) (320 GPCRs [7]): 0.9 Fold over Basal and 0.8 Fold over Basal
RLU (Fold over Basal) (320 GPCRs [8]): 1 Fold over Basal
RLU (Fold over Basal) (320 GPCRs [9]): 1.2 Fold over Basal and 1 Fold over Basal and 0.6 Fold over Basal
RLU (Fold over Basal) (320 GPCRs [10]): 0.4 Fold over Basal and 0.7 Fold over Basal and 0.8 Fold over Basal
RLU (Fold over Basal) (320 GPCRs [11]): 0.9 Fold over Basal and 1.6 Fold over Basal and 0.8 Fold over Basal
RLU (Fold over Basal) (320 GPCRs [12]): 0.9 Fold over Basal and 0.8 Fold over Basal and 1.3 Fold over Basal
RLU (Fold over Basal) (320 GPCRs [13]): 0.6 Fold over Basal and 0.5 Fold over Basal and 0.8 Fold over Basal
RLU (Fold over Basal) (320 GPCRs [14]): 1.1 Fold over Basal and 1 Fold over Basal and 0.7 Fold over Basal and 0.6 Fold over Basal
RLU (Fold over Basal) (320 GPCRs [15]): 0.9 Fold over Basal and 1.5 Fold over Basal and 0.8 Fold over Basal and 1.3 Fold over Basal
RLU (Fold over Basal) (320 GPCRs [16]): 1.6 Fold over Basal and 0.8 Fold over Basal and 1 Fold over Basal
RLU (Fold over Basal) (320 GPCRs [17]): 1 Fold over Basal and 0.9 Fold over Basal
RLU (Fold over Basal) (320 GPCRs [18]): 4 Fold over Basal and 2 Fold over Basal and 3.4 Fold over Basal and 3.2 Fold over Basal
RLU (Fold over Basal) (320 GPCRs [19]): 0.9 Fold over Basal and 0.8 Fold over Basal and 1.1 Fold over Basal
RLU (Fold over Basal) (320 GPCRs [20]): 0.5 Fold over Basal and 0.9 Fold over Basal and 0.6 Fold over Basal
RLU (Fold over Basal) (320 GPCRs [21]): 1.1 Fold over Basal and 1.2 Fold over Basal and 1 Fold over Basal and 0.6 Fold over Basal
remaining activity at 10 µM (CDK9): 97%
remaining binding at 10 µM ([22]; 10000 nM, read-out: Percent Control): 0.25%
Signal (qPCR) ([22]; RSK2, [Compound] 0.0001 nM): 4.94e-6 and 4.75e-6
Signal (qPCR) ([22]; RSK2, [Compound] 0.01 nM): 3.91e-6 and 4.73e-6
Signal (qPCR) ([22]; RSK2, [Compound] 0.169 nM): 4.25e-6 and 3.92e-6
Signal (qPCR) ([22]; RSK2, [Compound] 0.508 nM): 4.17e-6 and 4.75e-6
Signal (qPCR) ([22]; RSK2, [Compound] 1.52 nM): 4.57e-6 and 4.32e-6
Signal (qPCR) ([22]; RSK2, [Compound] 4.57 nM): 4.65e-6 and 4.1e-6
Signal (qPCR) ([22]; RSK2, [Compound] 13.7 nM): 3.9e-6 and 3.53e-6
Signal (qPCR) ([22]; RSK2, [Compound] 41.2 nM): 3.36e-6 and 3.55e-6
Signal (qPCR) ([22]; RSK2, [Compound] 123 nM): 3.09e-6 and 2.73e-6
Signal (qPCR) ([22]; RSK2, [Compound] 370 nM): 2.17e-6 and 2e-6
Signal (qPCR) ([22]; RSK2, [Compound] 3330 nM): 5.93e-7 and 5.31e-7
Signal (qPCR) ([22]; RSK2, [Compound] 10000 nM): 2.67e-7 and 3.25e-7
remaining activity at 10 µM (CSF1R): 69%
activity in full dose-response (GPR160): no activity
activity in full dose-response (GPR174): no activity
activity in full dose-response (NMUR2): no activity
remaining activity at 10 µM [23]: 82%
remaining activity at 10 µM (CDK3): 100%
